This is an account of results in PubChem BioAssay AID1259407 (Chemical Carcinogenesis Research Information System (CCRIS), 2018).

The subject of the series is CCRIS mutagenicity, Ames/micronucleus/aberration tests. Description: CCRIS mutagenicity studies.
Where [1] appears, read: Test System: AMES SALMONELLA TYPHIMURIUM, Strain/Indicator: TA98, Metabolic Activation: HAMSTER, LIVER, S-9, AROCLOR 1254 (10%), Method: PREINCUBATION
[2] abbreviates: Test System: AMES SALMONELLA TYPHIMURIUM, Strain/Indicator: TA98, Metabolic Activation: NONE, Method: PREINCUBATION
Where [3] appears, read: Test System: AMES SALMONELLA TYPHIMURIUM, Strain/Indicator: TA98, Metabolic Activation: NONE, Method: STANDARD PLATE.
[4] abbreviates: Test System: AMES SALMONELLA TYPHIMURIUM, Strain/Indicator: TA98, Metabolic Activation: RAT, LIVER, S-9, AROCLOR 1254 (10%), Method: PREINCUBATION
The mark [5] stands for this setting: Test System: AMES SALMONELLA TYPHIMURIUM, Strain/Indicator: TA100, Metabolic Activation: HAMSTER, LIVER, S-9, AROCLOR 1254 (10%), Method: PREINCUBATION
Where [6] appears, read: Test System: AMES SALMONELLA TYPHIMURIUM, Strain/Indicator: TA100, Metabolic Activation: NONE, Method: PREINCUBATION
[7] abbreviates: Test System: AMES SALMONELLA TYPHIMURIUM, Strain/Indicator: TA100, Metabolic Activation: NONE, Method: STANDARD PLATE.
[8] abbreviates: Test System: AMES SALMONELLA TYPHIMURIUM, Strain/Indicator: TA100, Metabolic Activation: RAT, LIVER, S-9, AROCLOR 1254 (10%), Method: PREINCUBATION
Where [9] appears, read: Test System: AMES SALMONELLA TYPHIMURIUM, Strain/Indicator: TA1535, Metabolic Activation: HAMSTER, LIVER, S-9, AROCLOR 1254 (10%), Method: PREINCUBATION
[10] abbreviates: Test System: AMES SALMONELLA TYPHIMURIUM, Strain/Indicator: TA1535, Metabolic Activation: NONE, Method: PREINCUBATION
The mark [11] stands for this setting: Test System: AMES SALMONELLA TYPHIMURIUM, Strain/Indicator: TA1535, Metabolic Activation: RAT, LIVER, S-9, AROCLOR 1254 (10%), Method: PREINCUBATION

SMILES strings stand for the structures. Calls of active or inactive are those of the source. How the calls were made is not given here.

Regarding `ClCCCl`, the mutagenic call (Test System: AMES SALMONELLA TYPHIMURIUM, Strain/Indicator: TA97, Metabolic Activation: HAMSTER, LIVER, S-9, AROCLOR 1254 (10%), Method: PREINCUBATION) was “inactive; negative”; the mutagenic call (Test System: AMES SALMONELLA TYPHIMURIUM, Strain/Indicator: TA97, Metabolic Activation: NONE, Method: PREINCUBATION) was “inactive; negative”; the mutagenic call (Test System: AMES SALMONELLA TYPHIMURIUM, Strain/Indicator: TA97, Metabolic Activation: NONE, Method: STANDARD PLATE) is “inactive; negative”; the mutagenic call (Test System: AMES SALMONELLA TYPHIMURIUM, Strain/Indicator: TA97, Metabolic Activation: RAT, LIVER, S-9, AROCLOR 1254 (10%), Method: PREINCUBATION) is “inactive; negative”; the mutagenic call (Test System: AMES SALMONELLA TYPHIMURIUM, Strain/Indicator: TA97, Metabolic Activation: RAT, LIVER, S-9, AROCLOR 1254, Method: STANDARD PLATE) was “active; positive”; the mutagenic call under setting [1] is “inactive; negative”. Besides, the mutagenic call under setting [2] is “inactive; negative”; the mutagenic call under setting [3] is “inactive; negative”; the mutagenic call under setting [4] was “inactive; negative”; the mutagenic call (Test System: AMES SALMONELLA TYPHIMURIUM, Strain/Indicator: TA98, Metabolic Activation: RAT, LIVER, S-9, AROCLOR 1254, Method: STANDARD PLATE) was “active; positive”; the mutagenic call under setting [5] was “inactive; negative”; the mutagenic call under setting [6] was “inactive; negative”. The mutagenic call was “active; positive” under setting [7]; “inactive; negative” under setting [8]; “active; positive” (Test System: AMES SALMONELLA TYPHIMURIUM, Strain/Indicator: TA100, Metabolic Activation: RAT, LIVER, S-9, AROCLOR 1254, Method: STANDARD PLATE); “inactive; negative” (Test System: AMES SALMONELLA TYPHIMURIUM, Strain/Indicator: TA104, Metabolic Activation: NONE, Method: STANDARD PLATE); “active; positive” (Test System: AMES SALMONELLA TYPHIMURIUM, Strain/Indicator: TA104, Metabolic Activation: RAT, LIVER, S-9, AROCLOR 1254, Method: STANDARD PLATE); “active; positive” (Test System: AMES SALMONELLA TYPHIMURIUM, Strain/Indicator: TA1530, Metabolic Activation: NONE, Method: SPOT). The mutagenic call was “active; positive” under setting [9]; “inactive; negative” under setting [10]; “active; positive” (Test System: AMES SALMONELLA TYPHIMURIUM, Strain/Indicator: TA1535, Metabolic Activation: NONE, Method: SPOT); “inactive; negative” (Test System: AMES SALMONELLA TYPHIMURIUM, Strain/Indicator: TA1535, Metabolic Activation: NONE, Method: STANDARD PLATE); “active; positive” under setting [11]; “active; positive” (Test System: AMES SALMONELLA TYPHIMURIUM, Strain/Indicator: TA1535, Metabolic Activation: RAT, LIVER, S-9, Method: STANDARD PLATE). Also, the mutagenic call (Test System: AMES SALMONELLA TYPHIMURIUM, Strain/Indicator: TA1535, Metabolic Activation: S-9 MIX, Method: STANDARD PLATE) is “active; positive”; the mutagenic call (Test System: Ames Salmonella typhimurium, Strain/Indicator: TA98, Metabolic Activation: None, Method: Preincubation) was “inactive; negative”; the mutagenic call (Test System: Ames Salmonella typhimurium, Strain/Indicator: TA98, Metabolic Activation: Rat, Liver, S9, Sodium phenobarbital and 5,6-benzoflavone (10%), Method: Preincubation) is “inactive; negative”; the mutagenic call (Test System: Ames Salmonella typhimurium, Strain/Indicator: TA100, Metabolic Activation: None, Method: Preincubation) is “inactive; negative”; the mutagenic call (Test System: Ames Salmonella typhimurium, Strain/Indicator: TA100, Metabolic Activation: Rat, Liver, S9, Sodium phenobarbital and 5,6-benzoflavone (10%), Method: Preincubation) is “inactive; negative”; the mutagenic call (Test System: Ames Salmonella typhimurium, Strain/Indicator: TA1535, Metabolic Activation: Rat, Liver, S9, Sodium phenobarbital and 5,6-benzoflavone (10%), Method: Preincubation) was “active; positive”. The mutagenic call is “inactive; negative” (Test System: Ames Salmonella typhimurium, Strain/Indicator: TA1537, Metabolic Activation: None, Method: Preincubation); “inactive; negative” (Test System: Ames Salmonella typhimurium, Strain/Indicator: TA1537, Metabolic Activation: Rat, Liver, S9, Sodium phenobarbital and 5,6-benzoflavone (10%), Method: Preincubation); “inactive; negative” (Test System: E. coli, Strain/Indicator: WP2uvrA/pKM101, Metabolic Activation: None, Method: Preincubation); “inactive; negative” (Test System: E. coli, Strain/Indicator: WP2uvrA/pKM101, Metabolic Activation: Rat, Liver, S9, Sodium phenobarbital and 5,6-benzoflavone (10%), Method: Preincubation).
With `Oc1ccc2ccc3[nH]c4ccc5ccccc5c4c3c2c1`, the mutagenic call under setting [3] was “active; positive”; the mutagenic call (Test System: AMES SALMONELLA TYPHIMURIUM, Strain/Indicator: TA98, Metabolic Activation: RAT, LIVER, S-9, 3-METHYLCHOLANTHRENE, Method: STANDARD PLATE) was “active; positive”; the mutagenic call under setting [7] is “active; positive”; the mutagenic call (Test System: AMES SALMONELLA TYPHIMURIUM, Strain/Indicator: TA100, Metabolic Activation: RAT, LIVER, S-9, 3-METHYLCHOLANTHRENE, Method: STANDARD PLATE) was “active; positive”; the mutagenic call (Test System: AMES SALMONELLA TYPHIMURIUM, Strain/Indicator: TM677, Metabolic Activation: NONE, Method: PREINCUBATION) was “inactive; negative”; the mutagenic call (Test System: AMES SALMONELLA TYPHIMURIUM, Strain/Indicator: TM677, Metabolic Activation: RAT, LIVER, S-9, 3-METHYLCHOLANTHRENE (1%), Method: PREINCUBATION) was “active; positive”. Besides, the mutagenic call was “active; positive” (Test System: AMES SALMONELLA TYPHIMURIUM, Strain/Indicator: TM677, Metabolic Activation: RAT, LIVER, S-9, 3-METHYLCHOLANTHRENE (10%), Method: PREINCUBATION) and “active; positive” (Test System: AMES SALMONELLA TYPHIMURIUM, Strain/Indicator: TM677, Metabolic Activation: RAT, LIVER, S-9, AROCLOR 1254 (10%), Method: PREINCUBATION).
`Cc1ccc(NC(N)=O)cc1`: the mutagenic call runs as follows: under setting [1], “inactive; negative”; under setting [2], “inactive; negative”; under setting [4], “inactive; negative”; under setting [5], “inactive; negative”; under setting [6], “inactive; negative”; under setting [8], “inactive; negative”. Besides, the mutagenic call is “inactive; negative” under setting [9]; “inactive; negative” under setting [10]; “inactive; negative” under setting [11]; “inactive; negative” (Test System: AMES SALMONELLA TYPHIMURIUM, Strain/Indicator: TA1537, Metabolic Activation: HAMSTER, LIVER, S-9, AROCLOR 1254 (10%), Method: PREINCUBATION); “inactive; negative” (Test System: AMES SALMONELLA TYPHIMURIUM, Strain/Indicator: TA1537, Metabolic Activation: NONE, Method: PREINCUBATION); “inactive; negative” (Test System: AMES SALMONELLA TYPHIMURIUM, Strain/Indicator: TA1537, Metabolic Activation: RAT, LIVER, S-9, AROCLOR 1254 (10%), Method: PREINCUBATION).
On to `CC(CN(CC(=O)O)CC(=O)O)N(CC(=O)O)CC(=O)O` (stereo unspecified), for which the mutagenic call is, setting by setting: (Test System: CHINESE HAMSTER V-79, Strain/Indicator: V-79/OUABAIN, Metabolic Activation: NONE, Method: STANDARD PLATE) “active; positive”; (Test System: UDS RODENT CELLS, Strain/Indicator: THY INCORP (NON-S-PHASE), Metabolic Activation: NONE, Method: AUTORADIOGRAPHY) “active; positive”.
